{"source": "patent US20190059368A1", "about": "“3,5-DIMETHOXYSTILBENE ANALOGS AND USES THEREOF” (The United States of America, as represented by the …, priority 2017, published 2019)", "key": {"[1]": {"tested_on": "Colletotrichum acutatum", "test": "Direct bioautography, antifungal", "format": "cell-based", "conditions": "Colletotrichum acutatum; 2 mM; 4 μl spotted (2 μl of the positive controls); average of 2 assays; read-out: zones of inhibition", "description": "(§1) The analogs were tested for activity against Colletotrichum acutatum SIMMONDS, C. fragariae BROOKS, and C. gloeosporioides (PENZ) PENZ & SACC. in Penz., using a direct bioautography method as previously described by Tabanca et al. (Nat. Prod. Commun. 2008, 3, 1073) and Wang, et al. (J. Agric. Food Chem. 2013, 61, 4551). Technical grade commercial fungicide standards benomyl, cyprodinil, azoxystrobin, and captan were used at 0.9-1.61 μg/μl concentrations in 95% EtOH. After sample application, each TLC plate was subsequently sprayed with a spore suspension (3.0×10^5 spores/ml) of the fungus of interest and incubated in a moisture chamber for 4 days at 26° C. with a 12 hour photoperiod. Clear zones of fungal growth inhibition on the TLC plate indicated the presence of antifungal constituents in each extract or pure compound. The test compounds were prepared at 2 mM soln. in 95% EtOH, and 4 μl were spotted on the plates (2 μl of the positive controls)."}, "[2]": {"tested_on": "C. gloeosporioides", "test": "Direct bioautography, antifungal", "format": "cell-based, Colletotrichum gloeosporioides", "conditions": "Colletotrichum gloeosporioides; 2 mM; 4 μl spotted (2 μl of the positive controls); average of 2 assays; read-out: zones of inhibition", "description": "as §1"}, "[3]": {"tested_on": "Colletotrichum species", "test": "Direct bioautography, antifungal (overall statement)", "format": "cell-based, Colletotrichum sp.", "description": "as §1"}, "[4]": {"tested_on": "C. fragariae", "test": "Direct bioautography, antifungal", "format": "cell-based, Colletotrichum fragariae", "conditions": "Colletotrichum fragariae; 2 mM; 4 μl spotted (2 μl of the positive controls); average of 2 assays; read-out: zones of inhibition", "description": "as §1"}, "[5]": {"tested_on": "Ae. aegypti larvae", "test": "Larvicidal bioassay against 1-day-old Ae. aegypti larvae (screening and dose-response)", "format": "in vivo, Aedes aegypti", "description": "Analogs were screened for activity against Ae. aegypti larvae following a bioassay system described in Ali, A., et al. (J. Med. Entomol. 2014, 51, 824). Ae. aegypti larvae used in these studies were from a laboratory colony maintained at the Mosquito and Fly Research Unit at the Center for Medical, Agricultural and Veterinary Entomology, USDA-ARS, Gainesville, Fla. For larval bioassays, the eggs were hatched and the larvae were maintained at a temperature of 27±2° C. and 60±10% RH with a photoperiod regimen of 12:12 hour (Light:Dark). Five 1-day-old Ae. aegypti larvae were added into a droplet of H2O to each well of 24-well plates (BD Labware, Franklin Lakes, N.J., USA) by use of a disposable 22.5-cm Pasteur pipette. A quantity of 50 μl of larval diet (2% slurry of 3:2 beef liver powder (Now Foods, Bloomingdale, Ill., USA) and Brewer's yeast (Lewis Laboratories Ltd., Westport, Conn., USA) was added to each well using a Finnpipette stepper (Thermo Fisher, Vantaa, Finland). All chemicals tested were diluted in DMSO. A quantity of 11 μl of the test chemical was added to the labeled wells, while 11 μl of DMSO was added to control treatments. After the treatment application, the plates were swirled in clockwise and counterclockwise motions and front and back and side to side five times to ensure even mixing of the chemicals. Larval mortality was recorded 24 hours post-treatment. […] Three dosages, 100, 50, and 25 ppm, were used in the screening bioassay to determine the larvicidal activity and each treatment was replicated twice. […] Each treatment was replicated ten times. LC50 Values for larvicidal data were calculated using SAS, Proc Probit. Control mortality was corrected using the Abbott's formula."}, "[6]": {"tested_on": "Cryptococcus neoformans ATCC 90113", "test": "Antimicrobial microplate assay (modified CLSI)", "format": "cell-based", "conditions": "Cryptococcus neoformans, ATCC90113; Cr. neoformans", "description": "(§2) All organisms were obtained from the American Type Culture Collection (ATCC; Manassas, Va., USA) and included the fungi Cryptococcus neoformans ATCC 90113 and the bacteria Staphylococcus aureus ATCC 29213, methicillin-resistant S. aureus ATCC 33591 (MRSA), and Mycobacterium intracellulare ATCC 23068. All organisms were tested using modified versions of the CLSI (formerly NCCLS) methods. For all organisms excluding My. intracellulare, optical density was used to monitor growth. Medium supplemented with 5% AlamarBlue® (BioSource International, Camarillo, Calif., USA) was utilized for growth detection of My. intracellulare. Samples (dissolved in DMSO) were serially diluted in 20% DMSO/saline and transferred (10 μl) in duplicate to 96-well flat-bottom microplates. Inocula were prepared by correcting the OD630 of microbe suspensions in Sabouraud Dextrose for Cr. neoformans, cation-adjusted Mueller-Hinton (Difco) at pH 7.3 for Staphylococcus spp., and 5% AlamarBlue® (BioSource International) in Middlebrook 7H9 broth with OADC enrichment, pH=7.0 for My. intracellulare, to afford an assay volume of 200 μl and final target inocula of: Cr. neoformans.: b 1.5×10^3, My. intracellulare: 2.0×10^6, and Staphylococcus spp.,: 5.0×10^5 CFU/ml. Final sample test concentrations were 1/100th the DMSO stock concentration. Drug controls (Ciprofloxacin (ICN Biomedicals, Ohio, USA) for bacteria and Amphotericin B (ICN Biomedicals) for fungi) were included in each assay. All organisms were read at either 530 nm using the Biotek Powerwave XS plate reader (Bio-Tek Instruments, VT) or 544ex1590em (My. intracellulare) using the Polarstar Galaxy Plate Reader (BMG LabTechnologies, Germany) before and after incubation: Staphylococcus spp. at 35° C. for 16-20 h, Cr. neoformans at 35° C. for 70-74 h, and My. intracellulare at 37° C. and 10% CO2 for 70-74 h. IC50 Values (concentrations that afford 50% inhibition relative to controls) werecalculated using XLfit 4.2 software (IDBS, Alameda, Calif.) using fit model 201."}, "[7]": {"tested_on": "Mycobacterium intracellulare ATCC 23068", "test": "Antimicrobial microplate assay (modified CLSI, AlamarBlue)", "format": "cell-based", "conditions": "ATCC23068, My. intracellulare", "description": "as §2, with “Drug controls (Ciprofloxacin (ICN Biomedicals, Ohio, USA) for bacteria and Amphotericin B (ICN Biomedicals) for fungi) were included in each assay.” left out"}, "[8]": {"tested_on": "Staphylococcus aureus ATCC 29213", "test": "Antimicrobial microplate assay (modified CLSI)", "format": "cell-based", "conditions": "ATCC29213, S. aureus", "description": "as §2, with “Drug controls (Ciprofloxacin (ICN Biomedicals, Ohio, USA) for bacteria and Amphotericin B (ICN Biomedicals) for fungi) were included in each assay.” left out"}, "[9]": {"tested_on": "methicillin-resistant S. aureus ATCC 33591 (MRSA)", "test": "Antimicrobial microplate assay (modified CLSI)", "format": "cell-based", "conditions": "Staphylococcus aureus", "description": "as §2, with “Drug controls (Ciprofloxacin (ICN Biomedicals, Ohio, USA) for bacteria and Amphotericin B (ICN Biomedicals) for fungi) were included in each assay.” left out"}, "[10]": {"tested_on": "larvae of ORL and PR strains of Ae. aegypti", "format": "in vivo", "conditions": "for Percent Mortality: larvae, 24 h", "description": "(§3) Further tests were performed on compounds 11 and 12 to determine their effect on larvae and adult mosquitoes. The compounds were tested in the standard bioassays using the Orlando (ORL), pesticide-susceptible strain and the Puerto Rico (PR), pyrethroid-resistant strain of Ae. aegypti. The ORL strain has been in continuous colony since 1952 with no pesticide exposure while the resistant PR strain was colonized from egg papers collected near San Juan, PR in June, 2012. The PR strain is available as a resistant reference strain through BEIResources/CDC. Mortality was determined in the larval assays at four different concentrations (1, 0.5, 0.25, and 0.1 μg/μl) and three concentrations for adults (6.25%, 3.125%, and 1.56%). Mortality was recorded 24 h post-application, and in all assays, a negative solvent and a positive control using permethrin were utilized; tests were done in triplicate. Assays were conducted according to published procedures as described in Wanner, J. et al. (Curr. Bioact. Compd. 2015, 11, 13)."}, "[11]": {"tested_on": "adults of ORL and PR strains of Ae. aegypti", "test": "Adult mosquito assay, ORL and PR strains", "format": "in vivo", "conditions": "both strains", "description": "as §3"}, "[12]": {"conditions": "1-day-old larvae, mortality 24 hours post-treatment"}}, "note": "Read-outs that look alike come from different tables or passages of the source. Marks after values point to notes of the source that are not given here."}
{"molecule": "COc1cc(/C=C/c2ccccc2)cc(OC)c1C", "note": "[Compound 6a, (E)-1,3-dimethoxy-2-methyl-5-styrylbenzene]", "values": [{"measurement": "zone of inhibition at 2000 µM", "setting": "[1]", "value": 5, "unit": "mm"}, {"measurement": "zone of inhibition at 2000 µM", "setting": "[2]", "value": 5.5, "unit": "mm"}, {"measurement": "inhibitory effect on Colletotrichum species (in words)", "setting": "[3]", "value": "strong inhibitory effect"}, {"measurement": "zone of inhibition at 2000 µM", "setting": "[4]", "value": 5, "unit": "mm"}]}
{"molecule": "COc1cc(/C=C\\c2ccccc2)cc(OC)c1C", "note": "[Compound 7a, (Z)-1,3-dimethoxy-2-methyl-5-styrylbenzene]", "values": [{"measurement": "zone of inhibition at 2000 µM", "setting": "[1]", "value": 8, "unit": "mm"}, {"measurement": "zone of inhibition at 2000 µM", "setting": "[2]", "value": 7, "unit": "mm"}, {"measurement": "inhibitory effect on Colletotrichum species (in words)", "setting": "[3]", "value": "strong inhibitory effect"}, {"measurement": "zone of inhibition at 2000 µM", "setting": "[4]", "value": 6.5, "unit": "mm"}]}
{"molecule": "COc1cc(/C=C\\c2ccc(F)cc2)cc(OC)c1C", "note": "[Compound 7e, (Z)-1,3-dimethoxy-5-(4-fluorostyryl)-2-methylbenzene]", "values": [{"measurement": "zone of inhibition at 2000 µM", "setting": "[1]", "value": 6, "unit": "mm"}, {"measurement": "zone of inhibition at 2000 µM", "setting": "[2]", "value": 6, "unit": "mm"}, {"measurement": "inhibitory effect on Colletotrichum species (in words)", "setting": "[3]", "value": "strong inhibitory effect"}, {"measurement": "zone of inhibition at 2000 µM", "setting": "[4]", "value": 6, "unit": "mm"}]}
{"molecule": "COc1cc(/C=C\\c2ccc(O)c(CC=C(C)C)c2)cc(OC)c1", "note": "[Compound 12, (Z)-4-(3,5-dimethoxystyryl)-2-(3-methylbut-2-en-1-yl)phenol]", "values": [{"measurement": "LC50 (LD50 converted to μM)", "setting": "[5]; 1-day-old larvae, 24 hours", "value": 49.93, "unit": "µM"}, {"measurement": "LD50 (95% CI)", "setting": "[5]; [12]", "value": "16.2^b ppm"}, {"measurement": "LD90 (95% CI)", "setting": "[5]; [12]", "value": 37.9, "unit": "ppm"}, {"measurement": "larvicidal activity (in words)", "setting": "[5]; screening at 100, 50 and 25 ppm", "value": "high larvicidal activity"}, {"measurement": "IC50", "setting": "[6]", "value": 41.8, "unit": "µM"}, {"measurement": "MIC", "setting": "[6]", "value": 61.7, "unit": "µM"}, {"measurement": "IC50", "setting": "[7]", "value": 50.4, "unit": "µM"}, {"measurement": "MIC", "setting": "[7]", "value": 61.7, "unit": "µM"}, {"measurement": "IC50", "setting": "[8]", "value": 17, "unit": "µM"}, {"measurement": "MIC", "setting": "[8]", "value": 30.8, "unit": "µM"}, {"measurement": "IC50", "setting": "[9]", "value": 13, "unit": "µM"}, {"measurement": "MIC", "setting": "[9]", "value": 30.8, "unit": "µM"}, {"measurement": "effectiveness against larvae (in words)", "setting": "[10]; ORL and PR strains", "value": "highly effective"}, {"measurement": "Percent Mortality", "setting": "[10]; ORL strain, 0.1 μg/μl", "value": "66.7 ± 23.1", "unit": "%"}, {"measurement": "Percent Mortality", "setting": "[10]; ORL strain, 0.25 μg/μl", "value": "93.3 ± 11.5", "unit": "%"}, {"measurement": "Percent Mortality", "setting": "[10]; ORL strain, 0.5 μg/μl", "value": "93.3 ± 11.5", "unit": "%"}, {"measurement": "Percent Mortality", "setting": "[10]; ORL strain, 1.0 μg/μl", "value": "93.3 ± 11.5", "unit": "%"}, {"measurement": "Percent Mortality", "setting": "[10]; PR strain, 0.1 μg/μl", "value": "73.3 ± 11.5", "unit": "%"}, {"measurement": "Percent Mortality", "setting": "[10]; PR strain, 0.25 μg/μl", "value": "73.3 ± 11.5", "unit": "%"}, {"measurement": "Percent Mortality", "setting": "[10]; PR strain, 0.5 μg/μl", "value": "93.3 ± 11.5", "unit": "%"}, {"measurement": "Percent Mortality", "setting": "[10]; PR strain, 1.0 μg/μl", "value": "93.3 ± 11.5", "unit": "%"}, {"measurement": "effectiveness against adult mosquitoes (in words)", "setting": "[11]", "value": "somewhat effective"}]}
